In publication PMC11939470, “The Cyclic Antimicrobial Peptide C-LR18 Has Enhanced Antibacterial Activity, Improved Stability, and a Longer Half-Life Compared to the Original Peptide” (Antibiotics, 2025):
Where a SMILES comes first, the peptide text is derived from it. Bridges are numbered along the chain shown (N, C = ends).

Legend:
[1] = Half-life and pharmacokinetics in SD rats after caudal vein administration (HPLC); assay type: in vivo
Description: Half-life of peptides in SD rats was determined via HPLC according to the method described in [31]. The SD rats were maintained at constant room temperature [(25 ± 2) °C] with free access to food and water for 48 h. Each SD rat was weighed to an accuracy of 0.10 g, numbered, and grouped randomly, with 6 rats in each group. LR18 and C-LR18 were injected into SD rats via tail vein at a dose of 5 mg/kg body weight. A total of 200 μL of blood was collected from the orbital venous plexus at different time points of 0, 0.5, 0.8, 1.0, 1.5, 2.5, 3.5, 5, 10, 30, and 60 min, and placed into a centrifuge tube containing 0.5% heparin sodium. After centrifugation at 3000 r/min for 15 min, the supernatant was absorbed into a new centrifuge tube, and then acetonitrile containing 0.1% TFA was added at 1/1 volume. Vortexing for 30 s, the samples were centrifuged at 14,000 r/min for 20 min, the supernatant was aspirated and sterilized using a 0.22 μm sterilization filter, and 30 μL of the sample was used for HPLC determination. The pharmacokinetic parameters were calculated using Phoenix Winnonlin 7.0 software and analyzed with non-atrioventricular model. Drug–time curves were plotted using Graphpad Prim, and Mean ± SD was used to interpolate each point during drug–time curve fitting.

[2] = test system: genomic DNA of E. coli ATCC25922; test: DNA binding assay (gel retardation); conditions: 100 ng genomic DNA, 1–512 µM peptide, 37 °C 60 min, 0.8% agarose gel
Description: The DNA binding test was performed according to gel retardation experiments described previously. Firstly, genomic DNA was extracted from E. coli ATCC25922 using a DNA extraction kit. A total of 100 ng of genomic DNA was mixed with 1–512 µM peptide in a binding buffer (50 µg/mL of BSA, 1 mM of ethylene diamine tetra-acetic acid, 20 mM of KCl, 10 mM of Tris-HCl (pH = 8.0), 5% glycerol, and 1 mM of dithiothreitol) and incubated at 37 °C for 60 min. Subsequently, the samples were examined using 0.8% agarose gel electrophoresis. Observation and photography were performed in the UVP gel imaging system, and the electrophoresis mobility was analyzed.

E. coli ATCC25922 = test: Membrane permeability assay (propidium iodide uptake, flow cytometry); assay type: cell-based; conditions: 1 × MIC (4 μM), 30 min 37 °C, 1 × 10^6 CFU/mL, PBS control 3.25%
Description: The effect of C-LR18 on bacterial membrane permeability was measured using the propidium iodide (PI) uptake assay described in [22]. E. coli ATCC25922 in logarithmic growth phase were adjusted to 1 × 10^6 CFU/mL. C-LR18 was added with the final concentration of 4 μM. The mixtures were incubated for 30 min at 37 °C. […] After eliminating unbound dye by washing twice with PBS, the bacterial cells were detected using a flow cytometer (Ex = 535 nm/Em = 615 nm). The results were analyzed using FlowJo 6.2.1 and GraphPad Prism 5 software.

[3] = Half-life of peptides in plasma in vitro (HPLC); assay type: in vitro ADME, rat
Description: Half-life of peptides in vitro was determined using HPLC according to the method described in [30]. Blood from SPF SD rats was collected in a centrifuge tube containing 0.5% heparin sodium via cardiac sampling. Plasma was separated and stored at −80 °C until analyzed. The plasma samples with final concentrations of 25 μg/mL, 50 μg/mL, 100 μg/mL, 200 μg/mL, 400 μg/mL, and 750 μg/mL were prepared by mixing 1500 μg/mL of antimicrobial peptides with rat plasma, then adding acetonitrile containing 0.1% TFA at 1/1 volume. After vortexing for 30 s, the samples were centrifuged at 14,000 r/min for 20 min, the supernatant was aspirated, sterilized using a 0.22 μm sterilization filter, and 30 μL of the sample was used for HPLC determination. After HPLC detection, the value of the chromatographic peak area was counted, the mathematical relationship between the sample concentration and the chromatographic peak area was calculated, and the standard curve was drawn. The standard curve was regressio-calculated by linear fitting Y = aX + b and weighted least square method (w = 1/c2).
The 1 mg/mL peptide solution was mixed with SD rat plasma and incubated in a water bath at 37 °C. Samples were taken at different time points of 0, 20, 30, 40, 60, 80, 100, 120, 140, 160, 180, 200, 210, 240, 300, 400, 500, and 600 min. After vortexing for 30 s, the samples were centrifuged at 14,000 r/min for 20 min, the supernatant was aspirated and sterilized using a 0.22 μm sterilization filter, and 30 μL of the sample was used for HPLC determination. The experiment was repeated three times. The peak area measured by HPLC was substituted into the standard curve obtained by the above experiment, the peptide concentration at different time points was calculated, and the half-life of peptides in plasma was calculated.

E. coli Y1 = test: Therapeutic experiment, survival of E. coli-infected mice; assay type: in vivo, KM mice; conditions: within 72 h, 10 mice per group
Description: The mice (female, 18–21 g) were randomly divided into 6 groups, with PBS dilution as the control group. A total of 1–5 groups were injected intraperitoneally with 0.5 mL of E. coli solution containing […] CFU/mL, respectively. After inoculation, the mice were observed continuously for 5 days, and the mortality rate was recorded. The minimum dose (LD 100) at which all mice die within 5 days was used as the optimal dose for the bacterial attack in this experiment.
In order to further evaluate the therapeutic potential of antimicrobial peptide C-LR18, a mouse model infected with E. coli was constructed in this study. The Km mice (female, 18–21 g) were maintained at constant room temperature [(25 ± 2) °C] with free access to food and water for 48 h. […] A total of 0.5 mL of E. coli Y1 suspension (10^9 CFU/m L) was intraperitoneally injected into each group of mice. One hour after challenge, different doses of C-LR18 (2.5 mg/kg, 5 mg/kg, and 7.5 mg/kg) and polymyxin B (5 mg/kg) were intraperitoneally injected into mice. The group injected with the same dose of physiological water was the control group.

Compound: CC(C)C[C@@H]1NC(=O)[C@H](CCCNC(=N)N)NC(=O)[C@H](CCCNC(=N)N)NC(=O)[C@H](CC(C)C)NC(=O)[C@H](CC(C)C)NC(=O)[C@H](CCCNC(=N)N)NC(=O)[C@H](CC(C)C)NC(=O)[C@@H]2CCCN2C(=O)[C@H](CCCNC(=N)N)NC(=O)[C@H](CCCNC(=N)N)NC(=O)[C@@H]2CCCN2C(=O)[C@H](CC(C)C)NC(=O)[C@H](CCCNC(=N)N)NC(=O)[C@H](CC(C)C)NC(=O)[C@H](CC(C)C)NC(=O)[C@H](CCCNC(=N)N)NC(=O)[C@H](CCCNC(=N)N)NC(=O)[C@H](CC(C)C)NC(=O)[C@@H](N)CSSC[C@@H](C(=O)O)NC1=O [C-LR18] (H-CLRRLLRLPRRPLRLLRRLC-OH; disulfide 1-20; N-terminus and C-terminus assumed)
- half-life in rats relative to LR18 ([1]; SD rats iv): 4.66 times
- prolongation of half-life in rats versus LR18 ([1]; SD rats iv): 10 min
- Cmax ([1]; SD rats, tail vein, 5 mg/kg, HPLC, n = 3): 254.23 ± 6.30 µg/mL
- AUC0-t ([1]; SD rats, tail vein, 5 mg/kg, non-compartmental, HPLC, n = 3 (method: 6 rats per group)): 3376.13 ± 37.72 µg·min/mL
- MRT ([1]; rat, plasma, iv, SD rats, tail vein, 5 mg/kg, HPLC, n = 3, read-out: MRT0-t (converted)): 13.5 min
- half-life ([1]; rat, plasma, iv, SD rats, tail vein, 5 mg/kg, HPLC, n = 3, read-out: T1/2β (terminal elimination half-life)): 12.7 ± 0.79 min
- concentration exhibiting DNA-binding ability [2]: 64 µM
- PI fluorescence of treated cells (PI-A+) (E. coli ATCC25922): 60.6%
- half-life ([3]; 1 mg/mL peptide solution mixed with SD rat plasma (heparin), 37 °C water bath, 0–600 min, HPLC, repeated three times): 209 ± 20.2 min
- peptide degraded in plasma ([3]; after 210 min, rat plasma 37 °C, HPLC): More than half
- peptide detected in plasma samples ([3]; after 600 min, rat plasma 37 °C, HPLC): no C-LR18 could be detected
- half-life in rat plasma relative to LR18 ([3]; in vitro rat plasma): 3.37 times
- prolongation of half-life in rat plasma versus LR18 ([3]; in vitro rat plasma): 147.33 min
- survival rate of mice (E. coli Y1; 2.5 mg/kg ip 1 h after ip 0.5 mL E. coli Y1 10^9 CFU/mL): 20%
- survival rate of mice (E. coli Y1; 5 mg/kg ip 1 h after ip 0.5 mL E. coli Y1 10^9 CFU/mL): 40%
- survival rate of mice (E. coli Y1; 7.5 mg/kg ip 1 h after ip 0.5 mL E. coli Y1 10^9 CFU/mL): 60%
